Assay results from the CheMixHub ionic liquid set.

Assay: xn = mol fraction of the nth substance listed

CCCCCC[n+]1ccn(C)c1.F[B-](F)(F)F + CCCCCC[n+]1ccn(C)c1.[Cl-]
101 kPa, x2 = 0
Conditions	electrical conductivity [S/m]	viscosity [mPa·s]
303 K	0.16	–
303.15 K	–	189
308 K	0.205	–
308.15 K	–	145
313 K	0.259	–
313.15 K	–	114
318 K	0.322	–
318.15 K	–	90
323 K	0.397	–
323.15 K	–	73
328 K	0.481	–
328.15 K	–	60
333 K	0.576	–
333.15 K	–	49

CCCCCC[n+]1ccn(C)c1.F[B-](F)(F)F + CCCCCO
101.33 kPa, x2 = 0.865
Conditions	viscosity [mPa·s]
315 K	5.31
315.35 K	4.93
315.39 K	4.9
315.5 K	4.85
315.63 K	4.78
315.79 K	4.73
315.84 K	4.71
315.86 K	4.71
318.02 K	4.19

CC(=O)[O-].CCCC[N+](CCCC)(CCCC)CCCC + CCCCN + O
303.15 K, 100 kPa
Conditions	viscosity [mPa·s]
x2 = 0, x3 = 0.0291	680
x2 = 0.0965, x3 = 0.0347	390
x2 = 0.194, x3 = 0.0301	188
x2 = 0.3198, x3 = 0.031	78
x2 = 0.4873, x3 = 0.0253	28
x2 = 0.6575, x3 = 0.0186	16
x2 = 0.7882, x3 = 0.0148	11
x2 = 0.8893, x3 = 0.0119	9

CCC[NH3+].O=[N+]([O-])[O-] + CCCC[NH3+].O=[N+]([O-])[O-]
101 kPa, frequency 0.00293 MHz, x1 = 0.5
Conditions	electrical conductivity [S/m]
293.15 K	0.496
313.15 K	1.02
323.15 K	1.36

101 kPa, x1 = 0.5
Conditions	viscosity [mPa·s]
293.15 K	100.4
313.15 K	45.4
323.15 K	32.6
328.15 K	28.1
343.15 K	18.8

CCC(=O)O.CCC(=O)[O-].CC[NH+](CC)CCO + CCCC[n+]1ccn(C)c1.COP(=O)([O-])OC
101 kPa
Conditions	viscosity [mPa·s]
278.15 K, x1 = 0.08	1956
283.15 K, x1 = 0.2364	446
283.15 K, x1 = 0.4953	205.6
283.15 K, x1 = 0.6252	170.9
283.15 K, x1 = 0.7416	147.7
288.15 K, x1 = 0.6252	123.8
293.15 K, x1 = 0.3281	154
293.15 K, x1 = 0.8667	70.8
298.15 K, x1 = 0.7416	60.3
298.15 K, x1 = 1	66.2
303.15 K, x1 = 0.08	280.9
303.15 K, x1 = 0.2364	123.4
303.15 K, x1 = 0.4183	70.2
303.15 K, x1 = 0.8667	41.6
308.15 K, x1 = 0.4183	54.9
308.15 K, x1 = 0.8667	32.8
313.15 K, x1 = 0.3281	53.8
313.15 K, x1 = 0.4953	39.2
318.15 K, x1 = 0.6252	27.36
323.15 K, x1 = 0.2364	47.3
323.15 K, x1 = 0.4953	25.98
328.15 K, x1 = 0.2364	38.66
328.15 K, x1 = 0.7416	16.29
328.15 K, x1 = 0.8667	14.65
333.15 K, x1 = 0.4953	18.11
333.15 K, x1 = 0.8667	12.33
333.15 K, x1 = 1	14.08
338.15 K, x1 = 0.08	48.11
338.15 K, x1 = 0.2364	26.76
338.15 K, x1 = 0.6252	13.4
338.15 K, x1 = 0.7416	11.64
343.15 K, x1 = 0.4953	13.09
348.15 K, x1 = 0.1549	25.27
348.15 K, x1 = 0.4183	12.61
348.15 K, x1 = 0.6252	9.95
348.15 K, x1 = 0.8667	7.75
353.15 K, x1 = 0.1549	21.56
353.15 K, x1 = 0.4183	10.98
358.15 K, x1 = 0.4183	9.63
358.15 K, x1 = 0.4953	8.59
358.15 K, x1 = 0.6252	7.61
363.15 K, x1 = 0.7416	5.82
363.15 K, x1 = 1	5.7
368.15 K, x1 = 0.08	17.66
368.15 K, x1 = 0.1549	14.09
368.15 K, x1 = 0.7416	5.16
373.15 K, x1 = 0.7416	4.6
373.15 K, x1 = 1	4.41

CC(C)=O + CCCC[n+]1ccn(C)c1.F[B-](F)(F)F
Conditions	electrical conductivity, 296.15 K [S/m]	viscosity, 303.15 K [mPa·s]	viscosity, 313.15 K [mPa·s]	viscosity, 323.15 K [mPa·s]
100 kPa, x2 = 0	–	0.303	0.276	0.255
101 kPa, x1 = 1	0.05	–	–	–

CCCCCC[n+]1ccn(C)c1.F[B-](F)(F)F + CCCC[n+]1ccn(C)c1.F[B-](F)(F)F
101 kPa
Conditions	viscosity [mPa·s]
298.15 K, x2 = 0.103	195.1
298.15 K, x2 = 0.8917	115.3
299.15 K, x2 = 0.103	184.2
299.15 K, x2 = 0.809	115.7
301.15 K, x2 = 0.809	104.4
301.15 K, x2 = 0.8917	98.6
302.15 K, x2 = 0.3602	132.9
302.15 K, x2 = 0.555	115.9
302.15 K, x2 = 0.8917	93.9
303.15 K, x2 = 0.3602	126.2
303.15 K, x2 = 0.555	110
303.15 K, x2 = 0.809	94.5
303.15 K, x2 = 0.8917	89.3
304.15 K, x2 = 0.103	139.2
304.15 K, x2 = 0.5047	110
305.15 K, x2 = 0.3602	113.5
305.15 K, x2 = 0.4383	107.7
305.15 K, x2 = 0.598	98.5
305.15 K, x2 = 0.809	85.6
307.15 K, x2 = 0.054	123.9
308.15 K, x2 = 0.103	113
308.15 K, x2 = 0.3602	97.3
308.15 K, x2 = 0.4383	92.8

COCCOCCO + CCCC[n+]1ccn(C)c1.F[B-](F)(F)F
100 kPa
Conditions	viscosity [mPa·s]
283.15 K, x2 = 0.05366	7.07
283.15 K, x2 = 0.09486	8.3
283.15 K, x2 = 0.1969	12.44
283.15 K, x2 = 0.2893	17.54
283.15 K, x2 = 0.3913	25.12
283.15 K, x2 = 0.4909	35.39
283.15 K, x2 = 0.5826	48.46
283.15 K, x2 = 0.6949	71.9
283.15 K, x2 = 0.7838	100
283.15 K, x2 = 0.8792	145
283.15 K, x2 = 0.9489	192.9
293.15 K, x2 = 0.04883	4.923
293.15 K, x2 = 0.09356	5.88
293.15 K, x2 = 0.192	8.36
293.15 K, x2 = 0.292	11.92
293.15 K, x2 = 0.3812	15.94
293.15 K, x2 = 0.4892	22.53
293.15 K, x2 = 0.5841	30.52
293.15 K, x2 = 0.6808	41.95
293.15 K, x2 = 0.7796	58.1
293.15 K, x2 = 0.8752	81.9
293.15 K, x2 = 0.9414	109.4
303.15 K, x2 = 0.05005	3.91
303.15 K, x2 = 0.1374	4.662
303.15 K, x2 = 0.2026	6.323
303.15 K, x2 = 0.2965	8.36
303.15 K, x2 = 0.3975	11.28
303.15 K, x2 = 0.491	15.38
303.15 K, x2 = 0.5868	20.14
303.15 K, x2 = 0.6897	27.27
303.15 K, x2 = 0.7826	36.34
303.15 K, x2 = 0.8807	50.95
303.15 K, x2 = 0.9393	63.1
313.15 K, x2 = 0.04527	2.966
313.15 K, x2 = 0.09794	3.523
313.15 K, x2 = 0.2017	4.838
313.15 K, x2 = 0.2869	6.194
313.15 K, x2 = 0.3858	8.06
313.15 K, x2 = 0.4987	10.87
313.15 K, x2 = 0.5953	13.94
313.15 K, x2 = 0.6918	18.09
313.15 K, x2 = 0.7818	23.11
313.15 K, x2 = 0.8804	29.78
313.15 K, x2 = 0.9409	34.99

c1ccncc1 + CCCC[n+]1ccn(C)c1.F[B-](F)(F)F
298.15 K, 101 kPa
Conditions	electrical conductivity [S/m]	viscosity [mPa·s]
x1 = 0.1059	0.264	82
x1 = 0.2	0.347	58
x1 = 0.3028	0.456	39.2
x1 = 0.3969	0.601	26.4
x1 = 0.5033	0.792	16.4
x1 = 0.6063	1.01	9.9
x1 = 0.6873	1.17	6.39
x1 = 0.807	1.3	3.2
